Source: patent US20250099475A1, “METHODS OF TREATING HYPERTENSION BY PERIODIC SUPPRESSION OF ALDOSTERONE SYNTHASE” (Mineralys Therapeutics, Inc., priority 2022, published 2025)
Entries after “also recorded” stand apart in the source; their conditions may differ.

Experiments:
hypertensive subjects = assay: Example 4 dose-ranging study: 24-hour ambulatory blood pressure monitoring (ABPM); assay type: in vivo, human; conditions: for Change in ABPM (24 h) BPdias, Mean (sem) / Change in ABPM (24 h) BPmcan, Mean (sem) / Change in ABPM (24 h) BPsys, Mean (sem) / Change in ABPM (night) BPsys, Mean (sem) / Subjects with nighttime Dip 10-20% / Subjects with nighttime Dip <10% / Subjects with nighttime Dip >20%: Week 8, Full Analysis Set
[1] = target: T1, CYP 11β2 beta hydroxylase (Homo sapiens, UniProt P19099); assay: PKPD modeling of SAD study data: time above IC50; assay type: in vivo; conditions: aldosterone
T1 construct: estimated based on PKPD modeling of data from the SAD study; from tissue; host or cells: adrenal cortex of human study subjects (in vivo)
T1 sequence (P19099 25-503): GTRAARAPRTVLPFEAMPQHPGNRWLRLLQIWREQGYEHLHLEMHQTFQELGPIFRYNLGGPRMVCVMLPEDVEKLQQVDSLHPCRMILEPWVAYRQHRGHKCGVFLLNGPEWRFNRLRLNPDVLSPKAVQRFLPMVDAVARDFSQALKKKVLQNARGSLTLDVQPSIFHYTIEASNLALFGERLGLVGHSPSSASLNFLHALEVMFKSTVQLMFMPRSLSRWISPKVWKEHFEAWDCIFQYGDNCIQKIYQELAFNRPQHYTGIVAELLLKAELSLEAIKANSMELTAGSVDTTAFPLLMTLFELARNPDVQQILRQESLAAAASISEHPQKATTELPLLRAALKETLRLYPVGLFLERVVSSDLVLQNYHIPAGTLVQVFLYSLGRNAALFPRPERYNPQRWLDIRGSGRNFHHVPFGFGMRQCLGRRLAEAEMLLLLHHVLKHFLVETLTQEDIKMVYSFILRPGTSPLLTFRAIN
Method: A randomized, double-blinded, placebo-controlled study was conducted in which 116 patients were randomized and 87 received Compound A HBr.
A single ascending dose (SAD) study was conducted with the following dosing amounts tested: • (a) 5 mg • (b) 10 mg • (c) 20 mg • (d) 50 mg • (e) 100 mg • (f) 200 mg • (g) 400 mg • (h) 800 mg.
The IC50 of inhibition of CYP […] by Compound A HBr and the time above IC50 for each dosing amount were estimated based on PKPD modeling of data from the SAD study.

human CYP11B2 (hCYP11B2) = target: T2, human CYP11B2 (hCYP11B2) (Homo sapiens, UniProt P19099); assay: Assay of hCYP11B2 inhibition (11-DOC to aldosterone); assay type: biochemical; conditions: mitochondrial fraction of V79 cells stably expressing hCYP11B2; substrate 11-DOC; read-out: Inhibition constant (Ki) hCYP11B2
T2 construct: expressed in transfected cells; host or cells: V79 cells (mitochondrial fraction)
Method: The inhibitory effects of Compound A on human CYP 11B1 (hCYP11B1) and human CYP11B2 (hCYP11B2) enzyme activity were evaluated by determining the enzymatic conversion rates of 11-deoxycortisol to cortisol for hCYP11B1 and 11-DOC to aldosterone for hCYP11B2.

[2] = test system: human adrenocortical NCI-H295R cell culture; assay: Inhibitory effects on adrenal steroidogenesis; assay type: cell-based; conditions: 3 days of incubation
Method: Multiple concentrations of Compound A and aminoglutethimide (positive control) were evaluated in a human adrenocortical NCI-H295R cell culture. The effect of Compound A on adrenal steroidogenesis was determined by measurement of 12 steroid hormones in the culture medium after 3 days of incubation. The following steroids were measured: pregnenolone, 11-deoxycortisol, 17α-hydroxypregnenolone, 11-DOC, dehydroepiandrosterone, corticosterone, progesterone, cortisol, 17α-hydroxyprogesterone, aldosterone, androstenedione, and testosterone.

cardiovascular system = assay: Cardiovascular system in telemetered monkeys; assay type: in vivo, cynomolgus monkey; conditions: single oral doses up to 100-mg/kg as free base
Method: Effects of Compound A on the cardiovascular system were evaluated with conscious telemetered cynomolgus monkeys. Single doses of 0, 10, 30, or 100 mg/kg of Compound A as free base were orally administered to four male monkeys in a Latin-square design with a 7-day interval between dosing. Blood pressure, heart rate, and electrocardiogram parameters (PR interval, QRS duration, QT interval, and QTcB) were evaluated up to 24 hours after each dosing.

[3] = test system: plasma cortisol concentrations (PCCs); assay: ACTH-treated cynomolgus monkey model; assay type: in vivo
Method: An adrenocorticotropic hormone (ACTH)-treated cynomolgus monkey model was performed to evaluate the effect of Compound A on plasma cortisol concentrations (PCCs). A dose of Compound A, as free base, that was 100-fold higher than required to reduce PACs (0.3 mg/kg by mouth) was administered, followed immediately by ACTH (50 μg/kg subcutaneously). PACs were also evaluated in the animals. PACs and PCCs were determined by radioimmunoassay and measured during the 24 hours after Compound A administration.

CC(=O)N[C@H]1CC[C@H](NC(=O)CN2CCN(c3nncc(-c4ccc(C)cc4)n3)CC2)CC1 [Compound A HBr]
overnight reduction of systolic BP (24 h ambulatory) (hypertensive subjects; 100 mg QD cohort): −11.5+/−2.9 mmHg
Change in ABPM (24 h) BPdias, Mean (sem) (hypertensive subjects; 12.5 mg BID): −5.4 (2.2) mmHg
Change in ABPM (24 h) BPmcan, Mean (sem) (hypertensive subjects; 12.5 mg BID): −5.5 (2.7) mmHg
Change in ABPM (24 h) BPsys, Mean (sem) (hypertensive subjects; 12.5 mg BID): −5.7 (3.2) mmHg
Change in ABPM (night) BPsys, Mean (sem) (hypertensive subjects; 12.5 mg BID): −7.5 (4.0) mmHg
Subjects with nighttime Dip 10-20% (hypertensive subjects; 12.5 mg BID): 31%
Subjects with nighttime Dip <10% (hypertensive subjects; 12.5 mg BID): 69%
Subjects with nighttime Dip >20% (hypertensive subjects; 12.5 mg BID): 0%
Change in ABPM (24 h) BPdias, Mean (sem) (hypertensive subjects; 12.5 mg QD): −2.3 (1.7) mmHg
Change in ABPM (24 h) BPmcan, Mean (sem) (hypertensive subjects; 12.5 mg QD): −3.7 (2.6) mmHg
Change in ABPM (24 h) BPsys, Mean (sem) (hypertensive subjects; 12.5 mg QD): −5.2 (3.4) mmHg
Change in ABPM (night) BPsys, Mean (sem) (hypertensive subjects; 12.5 mg QD): −5.4 (4.2) mmHg
Subjects with nighttime Dip 10-20% (hypertensive subjects; 12.5 mg QD): 36%
Subjects with nighttime Dip <10% (hypertensive subjects; 12.5 mg QD): 64%
Subjects with nighttime Dip >20% (hypertensive subjects; 12.5 mg QD): 0%
Change in ABPM (24 h) BPdias, Mean (sem) (hypertensive subjects; 25 mg BID): −6.1 (1.8) mmHg
Change in ABPM (24 h) BPmcan, Mean (sem) (hypertensive subjects; 25 mg BID): −7.4 (2.3) mmHg
Change in ABPM (24 h) BPsys, Mean (sem) (hypertensive subjects; 25 mg BID): −8.7 (2.9) mmHg
Change in ABPM (night) BPsys, Mean (sem) (hypertensive subjects; 25 mg BID): −6.0 (2.8) mmHg
Subjects with nighttime Dip 10-20% (hypertensive subjects; 25 mg BID): 17%
Subjects with nighttime Dip <10% (hypertensive subjects; 25 mg BID): 79%
Subjects with nighttime Dip >20% (hypertensive subjects; 25 mg BID): 4%
Change in ABPM (24 h) BPdias, Mean (sem) (hypertensive subjects; 50 mg QD): −3.0 (1.6) mmHg
Change in ABPM (24 h) BPmcan, Mean (sem) (hypertensive subjects; 50 mg QD): −2.4 (2.2) mmHg
Change in ABPM (24 h) BPsys, Mean (sem) (hypertensive subjects; 50 mg QD): −1.8 (3.0) mmHg
Change in ABPM (night) BPsys, Mean (sem) (hypertensive subjects; 50 mg QD): 2.4 (4.2) mmHg
Subjects with nighttime Dip 10-20% (hypertensive subjects; 50 mg QD): 21%
Subjects with nighttime Dip <10% (hypertensive subjects; 50 mg QD): 78%
Subjects with nighttime Dip >20% (hypertensive subjects; 50 mg QD): 0%
Change in ABPM (24 h) BPdias, Mean (sem) (hypertensive subjects; 100 mg QD): −5.9 (1.5) mmHg
Change in ABPM (24 h) BPmcan, Mean (sem) (hypertensive subjects; 100 mg QD): −7.4 (1.8) mmHg
Change in ABPM (24 h) BPsys, Mean (sem) (hypertensive subjects; 100 mg QD): −8.9 (2.2) mmHg
Change in ABPM (night) BPsys, Mean (sem) (hypertensive subjects; 100 mg QD): −11.5 (2.5) mmHg
Subjects with nighttime Dip 10-20% (hypertensive subjects; 100 mg QD): 46%
Subjects with nighttime Dip <10% (hypertensive subjects; 100 mg QD): 46%
Subjects with nighttime Dip >20% (hypertensive subjects; 100 mg QD): 8%
% 24 hr above IC50 ([1]; 12.5 mg BID): 25%
% 24 hr above IC50 ([1]; 12.5 mg QD): 8%
% 24 hr above IC50 ([1]; 25 mg BID): 52%
% 24 hr above IC50 ([1]; 50 mg QD): 38%
% 24 hr above IC50 ([1]; 100 mg QD): 56%

CC(=O)N[C@H]1CC[C@H](NC(=O)CN2CCN(c3nncc(-c4ccc(C)cc4)n3)CC2)CC1 [Compound A]
Ki (human CYP11B2 (hCYP11B2)): 1.27 nM
reduction in aldosterone secretion ([2]; concentrations ≥0.11 μmol/L): > 50%
reduction in corticosterone ([2]; concentrations ≥1 μmol/L): > 50%
reductions in pregnenolone, progesterone, 17α-hydroxyprogesterone, 11-DOC, corticosterone, and cortisol ([2]; top concentration 3 μmol/L): < 50%
effects on cardiovascular parameters (blood pressure, heart rate, electrocardiogram) (cardiovascular system): no effects
selectivity for CYP11B2 over CYP11B1 in vivo ([3]; monkey models, dose ratio): 100 fold
effect on PCCs ([3]; single oral dose 100 times greater than the dose that inhibited PAC production, ACTH-loaded monkeys): did not affect PCCs; also recorded: PCCs were not affected
